Measurements from US10308643B2, “Heterocyclic compound” (Takeda Pharmaceutical Company Limited, priority 2015, dated 2019).

Tests used:
Format in all cases: biochemical
HDAC9 enzyme = biological target: T1, HDAC9 enzyme (Homo sapiens, UniProt Q9UKV0); test: HDAC9 Enzyme Inhibitory Assay (HDAC-Glo class IIa); conditions: 1 μM test compound, wells without enzyme = 100% inhibition; for inhibition at 1 µM: read-out: HDAC9 inhibitory rate (%) (1 μM)
T1 construct: transducing full length HDAC9 gene into Sf-9 insect cells; made in house; host or cells: Sf-9 insect cells
T1 sequence (Q9UKV0 whole entry, species assumed): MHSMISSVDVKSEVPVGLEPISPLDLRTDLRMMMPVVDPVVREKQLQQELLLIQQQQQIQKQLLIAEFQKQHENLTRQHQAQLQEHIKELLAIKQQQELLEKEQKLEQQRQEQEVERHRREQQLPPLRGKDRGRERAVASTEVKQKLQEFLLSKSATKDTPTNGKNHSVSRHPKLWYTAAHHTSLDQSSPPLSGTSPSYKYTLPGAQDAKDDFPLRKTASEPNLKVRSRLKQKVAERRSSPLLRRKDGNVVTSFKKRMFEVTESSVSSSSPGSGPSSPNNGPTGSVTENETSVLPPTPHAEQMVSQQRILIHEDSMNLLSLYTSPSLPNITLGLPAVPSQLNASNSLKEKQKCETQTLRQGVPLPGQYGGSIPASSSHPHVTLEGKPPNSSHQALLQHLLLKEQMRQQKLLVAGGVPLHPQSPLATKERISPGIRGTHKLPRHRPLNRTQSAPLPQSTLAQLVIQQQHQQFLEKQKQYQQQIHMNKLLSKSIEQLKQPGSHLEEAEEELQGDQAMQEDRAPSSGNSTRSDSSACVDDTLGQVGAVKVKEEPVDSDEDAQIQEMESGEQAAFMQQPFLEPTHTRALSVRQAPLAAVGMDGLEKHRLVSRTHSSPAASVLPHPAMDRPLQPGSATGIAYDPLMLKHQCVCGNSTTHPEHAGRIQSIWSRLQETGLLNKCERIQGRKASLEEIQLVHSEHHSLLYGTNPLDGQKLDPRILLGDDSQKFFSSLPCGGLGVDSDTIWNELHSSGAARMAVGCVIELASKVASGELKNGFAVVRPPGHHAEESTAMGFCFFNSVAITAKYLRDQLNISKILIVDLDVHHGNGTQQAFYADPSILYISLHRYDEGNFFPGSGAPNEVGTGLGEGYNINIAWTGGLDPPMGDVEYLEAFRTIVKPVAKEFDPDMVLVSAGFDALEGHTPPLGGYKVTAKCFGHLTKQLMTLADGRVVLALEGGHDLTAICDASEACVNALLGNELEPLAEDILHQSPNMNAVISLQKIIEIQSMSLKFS
In short: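 Luminescent HDAC-Glo class IIa readout after a 20 min room-temperature reaction; relative inhibition referenced to enzyme-free wells as 100%. Test compound first preincubated 60 min with Sf-9-expressed, Ni-NTA-purified full-length HDAC9 in pH 7.5 Tris buffer containing 135 mM NaCl, 0.6 mM glutathione and 0.01% Tween-20.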

HDAC6 enzyme = biological target: T2, HDAC6 enzyme (Homo sapiens, UniProt Q9UBN7); test: HDAC1/6 Enzyme Inhibitory Assay (HDAC-Glo I/II Assay kit), HDAC6; conditions: 1 μM test compound, wells without enzyme = 100% inhibition; for inhibition at 1 µM: read-out: HDAC6 inhibitory rate (%) (1 μM)
T2 construct: transducing full length HDAC1 and HDAC6 genes into Sf-9 insect cells; GST; purchased SignalChem; host or cells: Sf-9 insect cells
T2 sequence (Q9UBN7 1-1215): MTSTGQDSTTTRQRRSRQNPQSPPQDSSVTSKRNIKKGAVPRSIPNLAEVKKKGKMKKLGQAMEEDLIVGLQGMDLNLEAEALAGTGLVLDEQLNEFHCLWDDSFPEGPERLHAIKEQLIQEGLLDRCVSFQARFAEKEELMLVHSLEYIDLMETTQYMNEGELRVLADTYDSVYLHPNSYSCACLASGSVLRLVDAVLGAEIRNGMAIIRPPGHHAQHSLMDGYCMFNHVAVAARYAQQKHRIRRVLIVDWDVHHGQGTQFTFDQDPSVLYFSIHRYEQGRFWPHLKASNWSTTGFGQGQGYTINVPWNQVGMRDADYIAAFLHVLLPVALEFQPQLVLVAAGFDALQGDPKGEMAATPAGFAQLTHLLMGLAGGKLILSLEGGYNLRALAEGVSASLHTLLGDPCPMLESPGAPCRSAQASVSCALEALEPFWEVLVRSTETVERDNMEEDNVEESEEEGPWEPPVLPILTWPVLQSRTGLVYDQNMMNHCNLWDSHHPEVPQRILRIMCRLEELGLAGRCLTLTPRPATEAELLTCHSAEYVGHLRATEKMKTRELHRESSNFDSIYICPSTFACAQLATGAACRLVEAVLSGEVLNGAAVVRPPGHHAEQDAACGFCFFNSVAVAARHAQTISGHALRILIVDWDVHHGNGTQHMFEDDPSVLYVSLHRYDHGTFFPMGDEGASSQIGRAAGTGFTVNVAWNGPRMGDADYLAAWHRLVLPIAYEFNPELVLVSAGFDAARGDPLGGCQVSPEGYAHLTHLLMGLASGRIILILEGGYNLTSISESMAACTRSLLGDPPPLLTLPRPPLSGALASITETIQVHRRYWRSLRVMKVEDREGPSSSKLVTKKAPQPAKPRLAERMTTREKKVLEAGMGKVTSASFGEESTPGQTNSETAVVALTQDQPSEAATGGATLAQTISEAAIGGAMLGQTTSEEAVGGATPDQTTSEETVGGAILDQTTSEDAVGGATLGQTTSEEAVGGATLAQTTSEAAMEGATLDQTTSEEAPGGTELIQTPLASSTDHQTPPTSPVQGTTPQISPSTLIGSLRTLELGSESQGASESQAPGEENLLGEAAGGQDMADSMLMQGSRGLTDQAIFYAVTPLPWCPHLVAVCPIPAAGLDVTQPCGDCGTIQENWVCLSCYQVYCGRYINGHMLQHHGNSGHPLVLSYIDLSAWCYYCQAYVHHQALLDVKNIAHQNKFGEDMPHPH
In short: (§1)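 Full-length human HDAC1 or HDAC6, GST-purified from Sf-9 cells, was preincubated with compound for 60 min at room temperature in Tris-HCl pH 7.5 buffer with MgCl2, KCl, NaCl, glutathione and Tween-20. HDAC-Glo I/II substrate-developer was then added and reacted for 20 min before luminescence was read. Inhibition was set relative to no-enzyme wells as 100% inhibition.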

HDAC1 enzyme = biological target: T3, HDAC1 enzyme (Homo sapiens, UniProt Q13547); test: HDAC1/6 Enzyme Inhibitory Assay (HDAC-Glo I/II Assay kit), HDAC1; conditions: 1 μM test compound, wells without enzyme = 100% inhibition; for inhibition at 1 µM: read-out: HDAC1 inhibitory rate (%) (1 μM)
T3 construct: transducing full length HDAC1 and HDAC6 genes into Sf-9 insect cells; GST; purchased SignalChem; host or cells: Sf-9 insect cells
T3 sequence (Q13547 whole entry): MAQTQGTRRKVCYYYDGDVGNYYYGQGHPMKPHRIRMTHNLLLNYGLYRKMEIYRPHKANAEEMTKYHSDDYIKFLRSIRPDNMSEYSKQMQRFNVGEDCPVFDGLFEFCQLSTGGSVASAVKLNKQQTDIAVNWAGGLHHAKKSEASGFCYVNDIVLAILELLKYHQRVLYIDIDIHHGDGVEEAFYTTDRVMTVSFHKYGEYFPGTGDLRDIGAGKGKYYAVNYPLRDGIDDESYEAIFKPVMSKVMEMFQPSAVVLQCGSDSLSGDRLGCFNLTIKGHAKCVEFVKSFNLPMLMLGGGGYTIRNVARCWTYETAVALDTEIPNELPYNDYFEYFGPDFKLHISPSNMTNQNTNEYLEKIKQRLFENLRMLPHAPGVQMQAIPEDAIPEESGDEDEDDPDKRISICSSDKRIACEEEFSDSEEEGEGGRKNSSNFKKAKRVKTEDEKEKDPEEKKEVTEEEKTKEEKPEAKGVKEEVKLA
In short: as §1

Question: With `O=C(N[C@@H]1CCOC[C@@H]1N1Cc2ccc(-c3noc(C(F)(F)F)n3)cc2C1=O)C1CC1(F)F` (single isomer, unassigned) [Example 212, (1R) or (1S)-2,2-difluoro-N-((3R,4R)-3-(1-oxo-6-(5-(trifluoromethyl)-1,2,4-oxadiazol-3-yl)-1,3-dihydro-2H-isoindol-2-yl)tetrahydro-2H-pyran-4-yl)cyclopropanecarboxamide] as the compound, how does the “HDAC9 inhibitory rate (%) (1 μM)” value (HDAC9 enzyme; 1 µM) read?
Answer: The value was 58%.

Question: What about the “HDAC6 inhibitory rate (%) (1 μM)” value (HDAC6 enzyme; 1 µM) of the same compound?
Answer: Its value is 82%.

Question: What about the “HDAC1 inhibitory rate (%) (1 μM)” value (HDAC1 enzyme) of the same compound?
Answer: The value was 12%.

Question: `O=C1C[C@H](C(=O)N[C@@H]2CCCC[C@H]2N2Cc3ccc(-c4noc(C(F)(F)F)n4)cc3C2=O)CN1` [Example 130, (3S)-5-oxo-N-((1R,2R)-2-(1-oxo-6-(5-(trifluoromethyl)-1,2,4-oxadiazol-3-yl)-1,3-dihydro-2H-isoindol-2-yl)cyclohexyl)pyrrolidine-3-carboxamide] was tested. Which inhibition at 1 µM (HDAC9 enzyme) did it give?
Answer: The inhibition at 1 µM was 30%.

Question: And the inhibition at 1 µM (HDAC6 enzyme)?
Answer: Its inhibition at 1 µM is 86%.

Question: What about the inhibition at 1 µM (HDAC1 enzyme) of the same compound?
Answer: The inhibition at 1 µM was 0%.

Question: Which results are given for `CC(C)(C)OC(=O)N[C@@H]1CCCC[C@H]1N1Cc2ccc(-c3noc(C(F)(F)F)n3)cc2C1=O` [Example 26, tert-butyl ((1R,2R)-2-(1-oxo-6-(5-(trifluoromethyl)-1,2,4-oxadiazol-3-yl)-1,3-dihydro-2H-isoindol-2-yl)cyclohexyl)carbamate]?
Answer: inhibition at 1 µM (HDAC9 enzyme): 47%; inhibition at 1 µM (HDAC6 enzyme): 98%; inhibition at 1 µM (HDAC1 enzyme): 11%

Question: Which results are given for `CC(C)(C)OC(=O)N1CC(C)(C(=O)N[C@@H]2CCCC[C@H]2N2Cc3ccc(-c4noc(C(F)(F)F)n4)cc3C2=O)C1` [Example 197, tert-butyl 3-methyl-3-(((1R,2R)-2-(1-oxo-6-(5-(trifluoromethyl)-1,2,4-oxadiazol-3-yl)-1,3-dihydro-2H-isoindol-2-yl)cyclohexyl)carbamoyl)azetidine-1-carboxylate]?
Answer: inhibition at 1 µM (HDAC9 enzyme): 48%; inhibition at 1 µM (HDAC6 enzyme): 100%; inhibition at 1 µM (HDAC1 enzyme): 6%

Question: For `O=C(N[C@@H]1CCCC[C@H]1N1Cc2ccc(-c3noc(C(F)(F)F)n3)cc2C1=O)N1CC2CC(C1)O2` [Example 164, N-((1R,2R)-2-(1-oxo-6-(5-(trifiuoromethyl)-1,2,4-oxadiazol-3-yl)-1,3-dihydro-2H-isoindol-2-yl)cyclohexyl)-6-oxa-3-azabicyclo[3.1.1]heptane-3-carboxamide], which inhibition at 1 µM (HDAC9 enzyme) is on record?
Answer: Its inhibition at 1 µM is 18%.

Question: And the inhibition at 1 µM (HDAC6 enzyme)?
Answer: The inhibition at 1 µM was 97%.

Question: What about the inhibition at 1 µM (HDAC1 enzyme) of the same compound?
Answer: The inhibition at 1 µM was 1%.

Question: With `O=C1c2cc(-c3noc(C(F)(F)F)n3)ccc2CN1[C@@H]1CCOC[C@H]1c1ccccc1` (relative stereo) [Example 34, trans-2-(3-phenyltetrahydro-2H-pyran-4-yl)-6-(5-(trifluoromethyl)-1,2,4-oxadiazol-3-yl)isoindolin-1-one] as the compound, how does the inhibition at 1 µM (HDAC9 enzyme) read?
Answer: Its inhibition at 1 µM is 96%.

Question: And the inhibition at 1 µM (HDAC6 enzyme)?
Answer: The inhibition at 1 µM was 99%.

Question: What about the “HDAC1 inhibitory rate (%) (1 μM)” value (HDAC1 enzyme) of the same compound?
Answer: Its value is 90%.

Question: How did the inhibition at 1 µM (HDAC9 enzyme) turn out when `CC(=O)N1CC(N2Cc3ncc(-c4noc(C(F)(F)F)n4)cc3C2=O)C1` [Example 75, 6-(1-acetylazetidin-3-yl)-3-(5-(trifluoromethyl)-1,2,4-oxadiazol-3-yl)-6,7-dihydro-5H-pyrrolo[3,4-b]pyridin-5-one] was run?
Answer: Its inhibition at 1 µM is 79%.

Question: What about the inhibition at 1 µM (HDAC6 enzyme) of the same compound?
Answer: The inhibition at 1 µM was 87%.

Question: And the inhibition at 1 µM (HDAC1 enzyme)?
Answer: The inhibition at 1 µM was 11%.

Question: Which results are given for `O=C(N[C@@H]1COCC[C@H]1N1Cc2ccc(-c3noc(C(F)(F)F)n3)cc2C1=O)[C@@H]1CC1(F)F` [Example 149, (1S)-2,2-difluoro-N-((3S,4R)-4-(1-oxo-6-(5-(trifluoromethyl)-1,2,4-oxadiazol-3-yl)-1,3-dihydro-2H-isoindol-2-yl)tetrahydro-2H-pyran-3-yl)cyclopropanecarboxamide]?
Answer: inhibition at 1 µM (HDAC9 enzyme): 60%; inhibition at 1 µM (HDAC6 enzyme): 100%; inhibition at 1 µM (HDAC1 enzyme): 12%

Question: Which results are given for `CC(=O)N1CC[C@@H](N2Cc3cc(-c4noc(C(F)(F)F)n4)ccc3C2=O)[C@H](c2ccccc2)C1` (relative stereo) [Example 137, trans-2-(1-acetyl-3-phenylpiperidin-4-yl)-5-(5-(trifluoromethyl)-1,2,4-oxadiazol-3-yl)isoindolin-1-one]?
Answer: inhibition at 1 µM (HDAC9 enzyme): 94%; inhibition at 1 µM (HDAC6 enzyme): 89%; inhibition at 1 µM (HDAC1 enzyme): 25%
